# Assay results taken from patent US20210395247A1, “BTK INHIBITORS, PHARMACEUTICALLY ACCEPTABLE SALTS, POLYMORPHS AND APPLICATION THEREOF” (SHANGHAI HAIYAN PHARMACEUTICAL TECHNOLOGY CO., LTD., priority 2019, published 2021).
# Where two headings read alike, the source gives them in different places.
# How the values were obtained:
# BTK WT = molecular target: T1, BTK WT (Homo sapiens, UniProt Q06187); experiment: Lantha screening kinase reaction experiment (BTK WT inhibition); type: biochemical
# T1 construct: purchased Invitrogen PV3363
# Experimental: The compound was predissolved in 100% DMSO. 10 mM drug stock solution was obtained by dissolution at room temperature and then serially diluted with 8 vol % DMSO solution to a final concentration of 10-0.005 μM. 2.5 μl of a solution of substance to be tested and 2.5 μl of kinase (Invitrogen PV3363) diluted with the reaction buffer were added into each well of 384-well plate (Corning 3676), and then the mixture of Fluososcei-PolyGT (Invitrogen PV3610) substrate and ATP (Invitrogen PV3227) diluted with 5 μl of the reaction buffer were added to initiate the reaction. Among the wells, the kinase in the blank well was replaced with a reaction buffer and the kinase well (Enzyme) was not added with any drug. After shaking at 25° C. for 60 minutes in the dark, 10 μl of Detection Solution (mixture of Invitrogen PV3528 and EDTA, which was diluted with TR-FRET dilution buffer, the working concentration of EDTA was 5 mM, the working concentration of Lanthascreening Tb PY20 antibody was 0.2 nM) was added and shaken at room temperature for 30 minutes. The plates were read on a VictorX5 fluorescent plate reader (PerkinElmer) and the light absorption at an excitation wavelength of 340 nm and emission wavelengths of 500 nm and 520 nm was measured. […]
# 2. […] The half-inhibitory concentration IC50 was calculated by fitting with XLFIT 5.0 software (IDBS, UK).
# βBTK Y223 = molecular target: T2, βBTK Y223 (Homo sapiens, UniProt Q06187); experiment: Intracellular βBTK Y223 phosphorylation HTRF detection in Ramos cells; type: cell-based; conditions: sodium pervanadate
# T2 construct: endogenous in cells; host or cells: Ramos cells
# Experimental: The compound was predissolved in 100% DMSO. 10 mM drug stock solution was obtained by dissolution at room temperature and then serially diluted with 5 vol % DMSO solution to a final concentration of 3-0.0014 μM. Ramos cells were seeded into 96-well plates at a density of 4×10^5/well with 45 μl of 1640 medium containing 10% (V/V) FBS per well, and 5 μl of diluted solution of substance to be tested was added to each well, which was incubated for 1 hour at 37° C., 5% (V/V) CO2. 10 μl of sodium pervanadate dilution (diluted with 1640 without serum) was added, and to the negative control wells was added 10 μl of serum-free medium, which was incubated at 25° C. for 30 minutes on a shaker. 20 μl of lysate (4× lysate: blocked mother liquor is 25:1) was added to each well and incubated for 30 minutes at 25° C. on a shaker. It was shaken on an oscillator at 800 rpm for 1 minute. […] The plates were read on a VictorX5 fluorescent plate reader (PerkinElmer) and the light absorption at an excitation wavelength of 317 nm and emission wavelengths of 500 nm and 520 nm was measured (referring to the specification of 63ADK017PEH, Cisbio). The half-inhibitory concentration IC50 was calculated by fitting with XLFIT 5.0 software (IDBS, UK).
# wild-type EGFR kinase = molecular target: T3, wild-type EGFR kinase (Homo sapiens, UniProt P00533); experiment: Wild type EGFR kinase inhibition test (z-lyte); type: biochemical
# T3 construct: purchased Invitrogen PV3872
# Experimental: All the following reagents used in z-lyte test are commercially available from Invitrogen.
# The inhibitory effects of compounds to be tested on wild-type EGFR kinase (Invitrogen, PV3872) were measured by z-lyte methods.
# The working concentration of each component in 10 μl wild-type EGFR kinase reaction system was: 10 μM ATP, 0.8 ng/μl wild-type EGFR kinase (Invitrogen, PV3872), 2 μM Tyr04 substrate (Invitrogen, PV3193). After the compounds to be tested were added, the final concentration of DMSO was 2%.
# 10 mM drug stock solutions dissolved at room temperature were gradiently diluted with 4% DMSO in water to a final concentrations of 10-0.005 μM. To each well were added 2.5 μl of a solution of the compounds to be tested and 5 μl of a mixture of wild-type EGFR kinase and Tyr04 substrate diluted with a reaction buffer, and then 2.5 μl of ATP was added to initiate the reaction. […] The plates were read in a VictorX5 fluorescent microplate reader (PerkinElmer) and the light absorbance at an excitation wavelength of 405 nm and emission wavelengths of 450 nm and 520 nm was measured (For example, C3520 nm represents the reading of C3 well at 520 nm). […]
# The half-inhibitory concentration IC50 was calculated by fitting with XLFIT 5.0 software (IDBS, UK).
# [1] = Stability experiment (40° C./75% RH accelerated stability box and 60° C. oven); type: physicochemical
# Experimental: The compound of formula X (amorphous) and crystal form A are placed in a 40° C./75% RH accelerated stability box and a 60° C. oven respectively, and take samples at fixed time points.
# Solubility experiment = type: physicochemical
# Experimental: About 5 mg of the compound of formula X (amorphous), crystal form I and crystal form A were weighed into each centrifuge tube, and 0.5 ml or 1 ml of corresponding medium was added, and ultrasonic vibration is conducted to make it dissolved as much as possible to form a supersaturated solution, centrifuged and the supernatant (if the solubility is high, dilute it) was taken into the liquid chromatography to calculate the solubility, 5.69 mg of the compound of formula X (amorphous) can be completely dissolved in 0.5 ml of 0.1M HCl medium, 4.24 mg of crystal form I can be completely dissolved in 1 ml of 0.1M HCl medium, the experimental results are shown in table 12: […]
# [2] = Dynamic Vapor Sorption (DVS); type: physicochemical
# Experimental: The Dynamic Vapor Sorption (DVS) curve: acquired on the DVS Intrinsic of Surface Measurement Systems. The relative humidity at 25° C. is corrected with the deliquescence points of LiCl, Mg (NO3)2 and KCl.
# [3] = Stability experiment of crystal form I (60° C. oven); type: physicochemical
# Experimental: The sample is weighed and placed in an oven at 60° C., and taken for test at a fixed time point.
# [4] = Stability experiment of the crystal forms of the free base (mixed forms shaken under suspension in solvents, XRD); type: physicochemical; conditions: 50° C. 1 day, room temperature 1 day and 7 days
# Experimental: 80 mg of the compound of formula X in amorphous form, crystal form I, crystal form II and crystal form III were weighed respectively, and mixed them in a sample bottle; 20 mg of the mixture was weighed into each centrifuge tube, a total of 15 samples (5 experimental solvents, 3 experimental conditions); Experimental solvents: acetone, acetonitrile, ethyl acetate, isopropanol and ethanol; Experimental conditions: 1 day and 7 days at room temperature, 1 day at 50° C. The experimental conditions and results are as follows: […]
# [5] = Thermogravimetric analysis (TGA); type: physicochemical; conditions: below 250° C.
# Excerpt: TGA and DSC pattern: TGA and DSC pattern were collected on TA Q500/5000 thermogravimetric analyzer and TA Q200/2000 differential scanning calorimeter respectively.
# T3 sequence (P00533 668-1210 limits assumed): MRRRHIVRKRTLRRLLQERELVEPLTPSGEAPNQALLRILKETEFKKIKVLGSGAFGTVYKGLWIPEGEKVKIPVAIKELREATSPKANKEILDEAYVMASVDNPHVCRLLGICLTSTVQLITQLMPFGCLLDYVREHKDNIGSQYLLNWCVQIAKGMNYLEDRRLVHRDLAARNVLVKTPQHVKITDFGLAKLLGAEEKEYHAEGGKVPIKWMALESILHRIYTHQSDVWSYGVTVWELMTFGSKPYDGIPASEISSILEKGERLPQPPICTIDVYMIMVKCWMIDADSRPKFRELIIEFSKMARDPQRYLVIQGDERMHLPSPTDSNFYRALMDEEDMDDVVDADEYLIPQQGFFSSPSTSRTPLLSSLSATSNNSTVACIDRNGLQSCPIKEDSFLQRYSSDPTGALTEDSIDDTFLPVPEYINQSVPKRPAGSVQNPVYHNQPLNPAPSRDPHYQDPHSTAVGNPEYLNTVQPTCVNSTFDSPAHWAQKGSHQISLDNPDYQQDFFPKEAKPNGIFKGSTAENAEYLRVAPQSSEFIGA
# T1 sequence (Q06187 whole entry): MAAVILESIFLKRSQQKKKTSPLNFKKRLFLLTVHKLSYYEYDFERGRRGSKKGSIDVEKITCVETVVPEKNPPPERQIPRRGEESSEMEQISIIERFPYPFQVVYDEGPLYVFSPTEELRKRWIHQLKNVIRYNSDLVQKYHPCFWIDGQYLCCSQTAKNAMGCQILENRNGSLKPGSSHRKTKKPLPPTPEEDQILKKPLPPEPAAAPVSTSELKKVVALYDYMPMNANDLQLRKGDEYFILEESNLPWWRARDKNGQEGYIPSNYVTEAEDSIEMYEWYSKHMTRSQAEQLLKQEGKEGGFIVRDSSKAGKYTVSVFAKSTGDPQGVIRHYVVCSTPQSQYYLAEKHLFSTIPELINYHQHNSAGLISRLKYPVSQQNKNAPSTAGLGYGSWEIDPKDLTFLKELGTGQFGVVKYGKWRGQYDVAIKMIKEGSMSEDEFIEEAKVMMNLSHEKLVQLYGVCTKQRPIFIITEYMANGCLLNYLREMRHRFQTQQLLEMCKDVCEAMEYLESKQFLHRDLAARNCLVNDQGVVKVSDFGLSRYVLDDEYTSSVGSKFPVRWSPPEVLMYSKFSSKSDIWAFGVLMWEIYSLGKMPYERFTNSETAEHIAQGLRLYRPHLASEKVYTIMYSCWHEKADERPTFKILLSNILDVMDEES
# T2 sequence (Q06187 whole entry): as above
smiles,measurement,setting,value
"C=CC(=O)N1CCC[C@H](Nc2nc(Nc3ccc(N4CCOCC4)cc3F)c3c(c2F)CNC3=O)C1 [(S)-6-((1-acryloylpiperidin-3-yl)amino)-7-fluoro-4-((2-fluoro-4-morpholinophenyl)amino)-1,2-dihydrogen-3H-pyrrolo[3,4-c]pyridin-3-one, reference compound]",IC50,BTK WT,48 nM
"C=CC(=O)N1CCC[C@@H](Nc2nc(Nc3ccc(N4CCOCC4)cc3F)c3c(c2F)CNC3=O)C1 [Compound of formula X, (R)-6-((1-acryloylpiperidin-3-yl)amino)-7-fluoro-4-((2-fluoro-4-morpholinophenyl)amino)-1,2-dihydrogen-3H-pyrrolo[3,4-c]pyridin-3-one]",IC50,βBTK Y223,3 nM
same,IC50,BTK WT,2.4 nM
same,IC50,"wild-type EGFR kinase; 10 μM ATP, read-out: EGFR WT IC50",932 nM
same,selectivity BTK WT kinase over wild-type EGFR kinase (in words),wild-type EGFR kinase; comparison of tables 14 and 16,selective inhibitory activities against BTK WT kinase
same,Content %,[1]; 0 day,100.00%
same,Total Impurity %,[1]; 0 day,0%
same,chemical stability (conclusion in words),"[1]; 40° C./75% RH and 60° C., 8 days and 14 days",stable
same,Content %,"[1]; 40° C./75% RH, 8 days",100.62%
same,Total Impurity %,"[1]; 40° C./75% RH, 8 days",0%
same,Content %,"[1]; 40° C./75% RH, 14 days",100.70%
same,Total Impurity %,"[1]; 40° C./75% RH, 14 days",0%
same,Content %,"[1]; 60° C., 8 days",100.82%
same,Total Impurity %,"[1]; 60° C., 8 days",0%
same,Content %,"[1]; 60° C., 14 days",100.81%
same,Total Impurity %,"[1]; 60° C., 14 days",0%
same,Solubility,"Solubility experiment; 0.1M HCl medium, listed as Amorphous",≥11380 µg/mL
same,Solubility,"Solubility experiment; H2O, listed as Amorphous",11 µg/mL
same,Solubility,"Solubility experiment; pH 4.5 medium, listed as Amorphous",9 µg/mL
same,Solubility,"Solubility experiment; pH 6.8 medium, listed as Amorphous",7 µg/mL
"C=CC(=O)N1CCC[C@@H](Nc2nc(Nc3ccc(N4CCOCC4)cc3F)c3c(c2F)CNC3=O)C1 [crystal form I, (R)-6-((1-acryloylpiperidin-3-yl)amino)-7-fluoro-4-((2-fluoro-4-morpholinophenyl)amino)-1,2-dihydrogen-3H-pyrrolo[3,4-c]pyridin-3-one]",weight gain of moisture absorption,"[2]; 90% RH, 25° C.",0.22%
same,hygroscopicity (in words),[2]; from DVS at 90% RH,slightly hygroscopic
same,Solubility,Solubility experiment; 0.1M HCl medium,≥4240 µg/mL
same,Solubility,"Solubility experiment; pH 4.5 medium, pH 4.5, aqueous buffer, thermodynamic from solid, pH 4.5 medium, read-out: Solubility",8 µg/mL
same,Solubility,"Solubility experiment; pH 6.8 medium, pH 6.8, aqueous buffer, thermodynamic from solid, pH 6.8 medium, read-out: Solubility",6 µg/mL
same,Solubility,"Solubility experiment; water, thermodynamic from solid, H2O, read-out: Solubility",7 µg/mL
same,Content %,[3]; 0 day,100.11%
same,Relative substance %,[3]; 0 day,none
same,Content %,"[3]; 60° C., 1 week",99.91%
same,Relative substance %,"[3]; 60° C., 1 week",none
same,chemical stability (conclusion in words),"[3]; 60° C., 1 week and 2 weeks",stable
same,crystal form stability by XRD,"[3]; 60° C., 1 week and 2 weeks",has not changed
same,Content %,"[3]; 60° C., 2 weeks",99.76%
same,Relative substance %,"[3]; 60° C., 2 weeks",none
same,"form obtained from the mixture of amorphous and crystal forms I, II, III (XRD)",[4]; acetone,stable crystal form
same,"form obtained from the mixture of amorphous and crystal forms I, II, III (XRD)",[4]; acetonitrile,stable crystal form
same,"form obtained from the mixture of amorphous and crystal forms I, II, III (XRD)",[4]; ethyl acetate,stable crystal form
same,"form obtained from the mixture of amorphous and crystal forms I, II, III (XRD)",[4]; isopropanol,stable crystal form
same,TGA weight loss,[5],basically no weight loss
"C=CC(=O)N1CCC[C@@H](Nc2nc(Nc3ccc(N4CCOCC4)cc3F)c3c(c2F)CNC3=O)C1 [crystal form III, (R)-6-((1-acryloylpiperidin-3-yl)amino)-7-fluoro-4-((2-fluoro-4-morpholinophenyl)amino)-1,2-dihydrogen-3H-pyrrolo[3,4-c]pyridin-3-one]","form obtained from the mixture of amorphous and crystal forms I, II, III (XRD)",[4]; ethanol,stable crystal form
